Experimental findings from patent US9073914B2, “Substituted alkyl pyrimidin-4-one derivatives” (SANOFI, priority 2008, dated 2015) are described below.

The target of data set [1] is GSK3β (Homo sapiens, UniProt P49841). The data set can be described thus: Inhibitory activity against GSK3β (33P-ATP phosphorylation of prephosphorylated GS1 peptide, four protocols). The data set is classed as biochemical. The protocol: Test Example:Inhibitory Activity of the Medicament of the Present Invention Against GSK3β Four different protocols can be used. In a first protocol: 7.5 μM of prephosphorylated GS1 peptide and 10 μM ATP (containing 300,000 cpm of ^33P-ATP) were incubated in 25 mM Tris-HCl, pH 7.5, 0.6 mM DTT, 6 mM MgCl2, 0.6 mM EGTA, 0.05 mg/ml BSA buffer for 1 hour at room temperature in the presence of GSK3beta (total reaction volume: 100 microliters). In a second protocol: 4.1 μM of prephosphorylated GS1 peptide and 42 μM ATP (containing 260,000 cpm ^33P-ATP) were incubated in 80 mM Mes-NaOH, pH 6.5, 1 mM Mg acetate, 0.5 mM EGTA, 5 mM 2-mercaptoethanol, 0.02% Tween 20, 10% glycerol buffer for 2 hours at room temperature in the presence of GSK3beta. In a third protocol: 7.5 μM of prephosphorylated GS1 peptide and 10 μM ATP (containing 300,000 cpm of ^33P-ATP) were incubated in 50 mM Hepes, pH 7.2, 1 mM DTT, 1 mM MgCl2, 1 mM EGTA, 0.01% Tween 20 buffer for one hour at room temperature in the presence of GSK3beta (total reaction volume: 100 microliters). […] Incorporated ^33P radioactivity was determined by liquid scintillation spectrometry. […]
Chain of GSK3β (P49841 whole entry): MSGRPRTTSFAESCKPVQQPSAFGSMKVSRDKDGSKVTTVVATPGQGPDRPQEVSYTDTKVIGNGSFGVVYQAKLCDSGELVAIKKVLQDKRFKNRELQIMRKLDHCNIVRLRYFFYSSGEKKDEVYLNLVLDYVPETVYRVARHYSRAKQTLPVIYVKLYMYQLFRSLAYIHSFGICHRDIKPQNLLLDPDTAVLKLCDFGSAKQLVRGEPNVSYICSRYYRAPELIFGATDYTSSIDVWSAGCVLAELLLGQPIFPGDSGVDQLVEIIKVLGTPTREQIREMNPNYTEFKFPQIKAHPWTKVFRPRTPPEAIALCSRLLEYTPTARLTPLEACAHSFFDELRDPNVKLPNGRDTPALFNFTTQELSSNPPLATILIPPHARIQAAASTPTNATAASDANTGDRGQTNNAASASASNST

On to “(+/−)-9-Ethyl-4-oxo-2-pyrimidin-4-yl-5,6,8,9-tetrahydro-4H-1,4-a,7-triaza-benzocycloheptene-7-carboxylic acid ethyl ester [Compound No 1 of table 3]”, for which the “inhibition of GSK3β” value in data set [1] (at 1 μM) is on record as 63%.

A word on the melting point: it is the temperature, or range, at which the solid turns liquid. Usually IC50 stands for the concentration that gives 50% inhibition. A lower IC50 goes with greater potency in that assay. For the compound `O=c1cc(-c2ccncn2)nc2n1CCCCC2C1CC1` (racemic) [Compound No 20 of table 2, (+/−)-10-Cyclopropyl-2-pyrimidin-4-yl-7,8,9,10-tetrahydro-6H-pyrimido[1,2-α]azepin-4-one], the melting point lay within 130 to 132 °C. This compound also returned an IC50 in data set [1] (protocol 4 (commercial GSK3beta, Millipore; 10 μM ATP; 90 minutes)) of 8 nM.
